Values quoted from earlier work in patent US20240050339A1, “FORMULATION COMPRISING P-MENTHANE-3,8-DIOL” (priority 2020, published 2024).

Assays:
[1] = system: Urbani SARS virus; conditions: PMD alone, from U.S. Pat. No. 7,872,051
[2] = system: SARS-CoV-2 England-2 isolate; conditions: one minute, mixed with the virus in the liquid phase

| Compound | maximum log reduction [1] [log] | anti-viral activity in liquid suspension [2] |
| --- | --- | --- |
| CC1CCC(C(C)(C)O)C(O)C1 (stereo not drawn) [PMD, 2-(2-Hydroxypropan-2-yl)-5-methylcyclohexan-1-ol] | 2.5 | – |
| CCO [ethanol] | – | have anti-viral activity |
| CC(C)O [isopropanol, propan-2-ol] | – | have anti-viral activity |
